According to ChEMBL document CHEMBL3046904, “Synthesis, characterization, bioactivity, and POM analyses of isothiochromeno[3,4-e][1,2]oxazines” (2013):

Assays:
Format in all cases: functional
SF-268 [1] = assay: Cytotoxicity against Homo sapiens (human) SF268 assessed as cell growth at 10^-4 M after 48 hr by Alamar Blue assay; settings: SF-268, 48 h, read-out: Activity
NCI-H460 [2] = assay: Cytotoxicity against Homo sapiens (human) NCI-H460 assessed as cell growth at 10^-4 M after 48 hr by Alamar Blue assay; settings: NCI-H460, 48 h, read-out: Activity
MCF7 [3] = assay: Cytotoxicity against Homo sapiens (human) MCF7 assessed as cell growth at 10^-4 M after 48 hr by Alamar Blue assay; settings: MCF7, 48 h, read-out: Activity
HOP-92 = assay: Cytotoxicity against Homo sapiens (human) HOP92 after 48 hr by Alamar Blue assay; settings: HOP-92, 48 h
NCI/ADR-RES = assay: Cytotoxicity against Homo sapiens (human) NCI/ADR-RES after 48 hr by Alamar Blue assay
OVCAR-5 = assay: Cytotoxicity against Homo sapiens (human) OVCAR5 after 48 hr by Alamar Blue assay; settings: OVCAR-5, 48 h
SK-MEL-2 = assay: Cytotoxicity against Homo sapiens (human) SK-MEL-2 after 48 hr by Alamar Blue assay; settings: SK-MEL-2, 48 h
HCT-15 = assay: Cytotoxicity against Homo sapiens (human) HCT15 after 48 hr by Alamar Blue assay; settings: HCT-15, 48 h
U-251 = assay: Cytotoxicity against Homo sapiens (human) U251 after 48 hr by Alamar Blue assay; settings: U-251, 48 h
HOP-62 = assay: Cytotoxicity against Homo sapiens (human) HOP62 after 48 hr by Alamar Blue assay; settings: HOP-62, 48 h
KM12 = assay: Cytotoxicity against Homo sapiens (human) KM12 after 48 hr by Alamar Blue assay; settings: KM12, 48 h
NCI-H23 = assay: Cytotoxicity against Homo sapiens (human) NCI-H23 after 48 hr by Alamar Blue assay; settings: NCI-H23, 48 h
UO-31 = assay: Cytotoxicity against Homo sapiens (human) UO31 after 48 hr by Alamar Blue assay; settings: UO-31, 48 h
786-0 = assay: Cytotoxicity against Homo sapiens (human) 786-0 after 48 hr by Alamar Blue assay; settings: 786-0, 48 h
SF-295 = assay: Cytotoxicity against Homo sapiens (human) SF295 after 48 hr by Alamar Blue assay; settings: SF-295, 48 h
HCC 2998 = assay: Cytotoxicity against Homo sapiens (human) HCC2998 after 48 hr by Alamar Blue assay; settings: HCC 2998, 48 h
OVCAR-3 = assay: Cytotoxicity against Homo sapiens (human) OVCAR3 after 48 hr by Alamar Blue assay; settings: OVCAR-3, 48 h
K562 = assay: Cytotoxicity against Homo sapiens (human) K562 after 48 hr by Alamar Blue assay; settings: K562, 48 h
ACHN = assay: Cytotoxicity against Homo sapiens (human) ACHN after 48 hr by Alamar Blue assay
SN12C = assay: Cytotoxicity against Homo sapiens (human) SN12C after 48 hr by Alamar Blue assay
OVCAR-8 = assay: Cytotoxicity against Homo sapiens (human) OVCAR8 after 48 hr by Alamar Blue assay; settings: OVCAR-8, 48 h
[4] = Cytotoxicity against Homo sapiens (human) HL-60(TB) after 48 hr by Alamar Blue assay; settings: HL-60, 48 h
Hs-578T = assay: Cytotoxicity against Homo sapiens (human) Hs 578T after 48 hr by Alamar Blue assay
COLO 205 = assay: Cytotoxicity against Homo sapiens (human) COLO205 after 48 hr by Alamar Blue assay; settings: COLO 205, 48 h
M14 = assay: Cytotoxicity against Homo sapiens (human) M14 after 48 hr by Alamar Blue assay; settings: M14, 48 h
CAKI-1 = assay: Cytotoxicity against Homo sapiens (human) Caki1 after 48 hr by Alamar Blue assay; settings: CAKI-1, 48 h
SR = assay: Cytotoxicity against Homo sapiens (human) SR after 48 hr by Alamar Blue assay
SK-MEL-28 = assay: Cytotoxicity against Homo sapiens (human) SK-MEL-28 after 48 hr by Alamar Blue assay; settings: SK-MEL-28, 48 h
NCI-H460 [5] = assay: Cytotoxicity against Homo sapiens (human) NCI-H460 after 48 hr by Alamar Blue assay; settings: NCI-H460, 48 h
TK-10 = assay: Cytotoxicity against Homo sapiens (human) TK10 after 48 hr by Alamar Blue assay; settings: TK-10, 48 h
LOX IMVI = assay: Cytotoxicity against Homo sapiens (human) LOXIMVI after 48 hr by Alamar Blue assay
HCT-116 = assay: Cytotoxicity against Homo sapiens (human) HCT116 after 48 hr by Alamar Blue assay; settings: HCT-116, 48 h
UACC-62 = assay: Cytotoxicity against Homo sapiens (human) UACC62 after 48 hr by Alamar Blue assay; settings: UACC-62, 48 h
EKVX = assay: Cytotoxicity against Homo sapiens (human) EKVX after 48 hr by Alamar Blue assay
MDA-MB-231 = assay: Cytotoxicity against Homo sapiens (human) MDA-MB-231 after 48 hr by Alamar Blue assay; settings: MDA-MB-231, 48 h
A549 = assay: Cytotoxicity against Homo sapiens (human) A549 after 48 hr by Alamar Blue assay; settings: A549, 48 h
T47D = assay: Cytotoxicity against Homo sapiens (human) T47D after 48 hr by Alamar Blue assay
BT-549 = assay: Cytotoxicity against Homo sapiens (human) BT549 after 48 hr by Alamar Blue assay; settings: BT-549, 48 h
NCI-H226 = assay: Cytotoxicity against Homo sapiens (human) NCI-H226 after 48 hr by Alamar Blue assay; settings: NCI-H226, 48 h
RPMI-8226 = assay: Cytotoxicity against Homo sapiens (human) RPMI8226 after 48 hr by Alamar Blue assay; settings: RPMI-8226, 48 h
DU-145 = assay: Cytotoxicity against Homo sapiens (human) DU145 after 48 hr by Alamar Blue assay; settings: DU-145, 48 h
NCI-H322M = assay: Cytotoxicity against Homo sapiens (human) NCI-H322M after 48 hr by Alamar Blue assay
Malme-3M = assay: Cytotoxicity against Homo sapiens (human) MALME-3M after 48 hr by Alamar Blue assay
MOLT-4 = assay: Cytotoxicity against Homo sapiens (human) MOLT4 after 48 hr by Alamar Blue assay; settings: MOLT-4, 48 h
SW-620 = assay: Cytotoxicity against Homo sapiens (human) SW620 after 48 hr by Alamar Blue assay; settings: SW-620, 48 h
SK-MEL-5 = assay: Cytotoxicity against Homo sapiens (human) SK-MEL-5 after 48 hr by Alamar Blue assay; settings: SK-MEL-5, 48 h
SF-539 = assay: Cytotoxicity against Homo sapiens (human) SF539 after 48 hr by Alamar Blue assay; settings: SF-539, 48 h
IGROV-1 = assay: Cytotoxicity against Homo sapiens (human) IGROV1 after 48 hr by Alamar Blue assay; settings: IGROV-1, 48 h
MDA-MB-435 = assay: Cytotoxicity against Homo sapiens (human) MDA-MB-435 after 48 hr by Alamar Blue assay; settings: MDA-MB-435, 48 h
SF-268 [6] = assay: Cytotoxicity against Homo sapiens (human) SF268 after 48 hr by Alamar Blue assay; settings: SF-268, 48 h
OVCAR-4 = assay: Cytotoxicity against Homo sapiens (human) OVCAR4 after 48 hr by Alamar Blue assay; settings: OVCAR-4, 48 h
MCF7 [7] = assay: Cytotoxicity against Homo sapiens (human) MCF7 after 48 hr by Alamar Blue assay; settings: MCF7, 48 h
NCI-H522 = assay: Cytotoxicity against Homo sapiens (human) NCI-H522 after 48 hr by Alamar Blue assay; settings: NCI-H522, 48 h
HT-29 = assay: Cytotoxicity against Homo sapiens (human) HT-29 after 48 hr by Alamar Blue assay; settings: HT-29, 48 h
PC-3 = assay: Cytotoxicity against Homo sapiens (human) PC3 after 48 hr by Alamar Blue assay; settings: PC-3, 48 h
UACC-257 = assay: Cytotoxicity against Homo sapiens (human) UACC257 after 48 hr by Alamar Blue assay; settings: UACC-257, 48 h
RXF 393 = assay: Cytotoxicity against Homo sapiens (human) RXF393 after 48 hr by Alamar Blue assay; settings: RXF 393, 48 h
SNB-19 = assay: Cytotoxicity against Homo sapiens (human) SNB19 after 48 hr by Alamar Blue assay; settings: SNB-19, 48 h
A498 = assay: Cytotoxicity against Homo sapiens (human) A498 after 48 hr by Alamar Blue assay; settings: A498, 48 h

Cc1ccc(C2=C3SC=c4ccccc4=C3ON=C2c2ccccc2)cc1
growth at 100 µM (SF-268 [1]): 69% | growth at 100 µM (NCI-H460 [2]): 94% | growth at 100 µM (MCF7 [3]): 41%

Cc1ccc(C2=NOC3=c4ccccc4=CSC3=C2c2ccc(C)cc2)cc1
GI50 (HOP-92): 68.1 µM | GI50 (NCI/ADR-RES): > 100 µM | growth at 100 µM (SF-268 [1]): 91% | GI50 (OVCAR-5): > 100 µM | GI50 (SK-MEL-2): > 100 µM | GI50 (HCT-15): > 100 µM | GI50 (U-251): > 100 µM | GI50 (HOP-62): > 100 µM | GI50 (KM12): > 100 µM | GI50 (NCI-H23): > 100 µM | GI50 (UO-31): > 100 µM | GI50 (786-0): > 100 µM | GI50 (SF-295): > 100 µM | GI50 (HCC 2998): > 100 µM | GI50 (OVCAR-3): 94.8 µM | GI50 (K562): 22.9 µM | GI50 (ACHN): > 100 µM | growth at 100 µM (NCI-H460 [2]): 93% | GI50 (SN12C): 20 µM | GI50 (OVCAR-8): 40 µM | GI50 [4]: > 0.0001 µM | GI50 (Hs-578T): > 100 µM | GI50 (COLO 205): > 100 µM | GI50 (M14): > 100 µM | GI50 (CAKI-1): > 100 µM | GI50 (SR): 42 µM | GI50 (SK-MEL-28): > 100 µM | GI50 (NCI-H460 [5]): > 100 µM | GI50 (TK-10): > 100 µM | GI50 (LOX IMVI): > 100 µM | GI50 (HCT-116): 57.5 µM | GI50 (UACC-62): > 100 µM | GI50 (EKVX): > 100 µM | growth at 100 µM (MCF7 [3]): 36% | GI50 (MDA-MB-231): > 100 µM | GI50 (A549): > 100 µM | GI50 (T47D): 25.4 µM | GI50 (BT-549): > 100 µM | GI50 (NCI-H226): > 100 µM | GI50 (RPMI-8226): 69.2 µM | GI50 (DU-145): > 100 µM | GI50 (NCI-H322M): > 100 µM | GI50 (Malme-3M): > 100 µM | GI50 (MOLT-4): 37.1 µM | GI50 (SW-620): > 100 µM | GI50 (SK-MEL-5): > 100 µM | GI50 (SF-539): > 100 µM | GI50 (IGROV-1): > 100 µM | GI50 (MDA-MB-435): > 100 µM | GI50 (SF-268 [6]): > 100 µM | GI50 (OVCAR-4): > 100 µM | GI50 (MCF7 [7]): > 100 µM | GI50 (NCI-H522): 53.8 µM | GI50 (HT-29): > 100 µM | GI50 (PC-3): > 100 µM | GI50 (UACC-257): > 100 µM | GI50 (RXF 393): > 100 µM | GI50 (SNB-19): > 100 µM | GI50 (A498): > 100 µM

COc1ccc(C2=NOC3=c4ccccc4=CSC3=C2c2ccc(C)cc2)cc1
growth at 100 µM (SF-268 [1]): 97% | growth at 100 µM (NCI-H460 [2]): 96% | growth at 100 µM (MCF7 [3]): 86%
